From ChEMBL document CHEMBL3774320, “SAR exploration at the C-3 position of tetrahydro-β-carboline sstr3 antagonists” (Bioorg Med Chem Lett, 2016)

Assays:
[1] = molecular target: T1, Somatostatin receptor type 3 (Homo sapiens, UniProt P32745)
Description: Binding affinity to human somatostatin receptor type 3

[2] = molecular target: T1, Somatostatin receptor type 3; remark: listed apart in the source
Description: Antagonist activity at human somatostatin receptor type 3 assessed as inhibition of cAMP levels

[3] = molecular target: Voltage-gated inwardly rectifying potassium channel KCNH2 (Homo sapiens, UniProt Q12809); assay: Binding affinity to human ERG
[4] = system: Mus musculus; assay: Decrease in glucose excursion in mouse at 0.1 mg/kg, po by Glucose tolerance test; format: functional; parameters: scale not given: the % may be the effect or the level left
[5] = system: Mus musculus; assay: Dose normalized AUC in mouse at 2 mg/kg, po; format: ADME, organism-based; conditions: in vivo
[6] = system: Mus musculus; assay: Decrease in glucose excursion in mouse at 10 mg/kg, po by Glucose tolerance test; format: functional; parameters: scale not given: the % may be the effect or the level left
[7] = Clearance in mouse plasma at 1 mg/kg, iv; format: ADME, organism-based
[8] = Half life in mouse at 1 mg/kg, iv; format: ADME, organism-based; conditions: in vivo
[9] = Volume of distribution at steady state in mouse at 1 mg/kg, iv and at 2 mg/kg, po; format: ADME, organism-based; conditions: in vivo, read-out: Vdss
[10] = Oral bioavailability in mouse at 2 mg/kg; format: ADME, organism-based; conditions: in vivo
[11] = system: Mus musculus; assay: Decrease in glucose excursion in mouse at 0.03 mg/kg, po by Glucose tolerance test; format: functional; parameters: scale not given: the % may be the effect or the level left
[12] = system: Mus musculus; assay: Decrease in glucose excursion in mouse at 0.3 mg/kg, po by Glucose tolerance test; format: functional; parameters: scale not given: the % may be the effect or the level left
[13] = system: Mus musculus; assay: Decrease in glucose excursion in mouse at 1 mg/kg, po by Glucose tolerance test; format: functional; parameters: scale not given: the % may be the effect or the level left
[14] = system: Mus musculus; assay: Decrease in glucose excursion in mouse at 3 mg/kg, po by Glucose tolerance test; format: functional; parameters: scale not given: the % may be the effect or the level left
[15] = molecular target: Somatostatin receptor type 1 (Homo sapiens, UniProt P30872); assay: Binding affinity to somatostatin receptor type 1 (unknown origin)
Sequence of Somatostatin receptor type 1 (P30872 whole entry): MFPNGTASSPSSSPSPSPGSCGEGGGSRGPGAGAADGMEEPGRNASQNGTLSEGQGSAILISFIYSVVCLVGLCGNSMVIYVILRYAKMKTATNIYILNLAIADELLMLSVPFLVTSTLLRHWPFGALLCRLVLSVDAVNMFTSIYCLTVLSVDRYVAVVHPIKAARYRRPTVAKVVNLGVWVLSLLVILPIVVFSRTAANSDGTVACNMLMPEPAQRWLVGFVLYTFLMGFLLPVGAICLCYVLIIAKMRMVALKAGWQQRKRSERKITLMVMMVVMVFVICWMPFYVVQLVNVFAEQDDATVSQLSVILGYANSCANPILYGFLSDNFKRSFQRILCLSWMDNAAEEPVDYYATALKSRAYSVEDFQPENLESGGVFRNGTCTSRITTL

[16] = molecular target: Somatostatin receptor type 2 (Homo sapiens, UniProt P30874); assay: Binding affinity to somatostatin receptor type 2 (unknown origin)
Sequence of Somatostatin receptor type 2 (P30874 whole entry): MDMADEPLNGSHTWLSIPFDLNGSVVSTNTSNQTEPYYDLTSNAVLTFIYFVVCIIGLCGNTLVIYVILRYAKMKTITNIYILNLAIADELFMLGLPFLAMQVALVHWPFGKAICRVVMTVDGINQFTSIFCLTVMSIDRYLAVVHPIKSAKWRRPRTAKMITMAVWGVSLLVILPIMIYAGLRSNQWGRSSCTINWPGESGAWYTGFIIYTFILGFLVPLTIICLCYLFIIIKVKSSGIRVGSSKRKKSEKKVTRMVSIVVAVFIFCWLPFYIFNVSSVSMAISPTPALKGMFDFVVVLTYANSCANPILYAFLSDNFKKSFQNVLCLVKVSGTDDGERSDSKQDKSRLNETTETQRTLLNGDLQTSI

[17] = molecular target: Somatostatin receptor type 4 (Homo sapiens, UniProt P31391); assay: Binding affinity to somatostatin receptor type 4 (unknown origin)
Sequence of Somatostatin receptor type 4 (P31391 whole entry): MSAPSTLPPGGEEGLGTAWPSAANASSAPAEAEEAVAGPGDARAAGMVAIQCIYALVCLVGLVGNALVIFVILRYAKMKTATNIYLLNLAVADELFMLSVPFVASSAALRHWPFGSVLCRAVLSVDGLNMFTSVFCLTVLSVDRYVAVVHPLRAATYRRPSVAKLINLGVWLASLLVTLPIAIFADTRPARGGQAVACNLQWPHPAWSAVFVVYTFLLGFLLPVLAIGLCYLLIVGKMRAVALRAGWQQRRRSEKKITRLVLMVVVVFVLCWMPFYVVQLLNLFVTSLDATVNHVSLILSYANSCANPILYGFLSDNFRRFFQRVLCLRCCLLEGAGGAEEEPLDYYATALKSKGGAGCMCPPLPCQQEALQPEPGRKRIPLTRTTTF

[18] = molecular target: Somatostatin receptor type 5 (Homo sapiens, UniProt P35346); assay: Binding affinity to somatostatin receptor type 5 (unknown origin)
Sequence of Somatostatin receptor type 5 (P35346 whole entry): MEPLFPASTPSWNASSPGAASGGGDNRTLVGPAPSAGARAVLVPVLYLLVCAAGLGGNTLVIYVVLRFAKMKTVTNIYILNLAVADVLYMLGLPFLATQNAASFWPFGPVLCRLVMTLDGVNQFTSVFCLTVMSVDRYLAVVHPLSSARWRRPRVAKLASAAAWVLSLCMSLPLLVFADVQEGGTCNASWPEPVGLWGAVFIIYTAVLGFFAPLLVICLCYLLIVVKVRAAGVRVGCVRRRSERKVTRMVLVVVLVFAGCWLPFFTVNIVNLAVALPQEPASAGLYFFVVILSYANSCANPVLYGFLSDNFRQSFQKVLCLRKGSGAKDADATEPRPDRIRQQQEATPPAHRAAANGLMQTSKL

Sequence of Voltage-gated inwardly rectifying potassium channel KCNH2 (Q12809 whole entry): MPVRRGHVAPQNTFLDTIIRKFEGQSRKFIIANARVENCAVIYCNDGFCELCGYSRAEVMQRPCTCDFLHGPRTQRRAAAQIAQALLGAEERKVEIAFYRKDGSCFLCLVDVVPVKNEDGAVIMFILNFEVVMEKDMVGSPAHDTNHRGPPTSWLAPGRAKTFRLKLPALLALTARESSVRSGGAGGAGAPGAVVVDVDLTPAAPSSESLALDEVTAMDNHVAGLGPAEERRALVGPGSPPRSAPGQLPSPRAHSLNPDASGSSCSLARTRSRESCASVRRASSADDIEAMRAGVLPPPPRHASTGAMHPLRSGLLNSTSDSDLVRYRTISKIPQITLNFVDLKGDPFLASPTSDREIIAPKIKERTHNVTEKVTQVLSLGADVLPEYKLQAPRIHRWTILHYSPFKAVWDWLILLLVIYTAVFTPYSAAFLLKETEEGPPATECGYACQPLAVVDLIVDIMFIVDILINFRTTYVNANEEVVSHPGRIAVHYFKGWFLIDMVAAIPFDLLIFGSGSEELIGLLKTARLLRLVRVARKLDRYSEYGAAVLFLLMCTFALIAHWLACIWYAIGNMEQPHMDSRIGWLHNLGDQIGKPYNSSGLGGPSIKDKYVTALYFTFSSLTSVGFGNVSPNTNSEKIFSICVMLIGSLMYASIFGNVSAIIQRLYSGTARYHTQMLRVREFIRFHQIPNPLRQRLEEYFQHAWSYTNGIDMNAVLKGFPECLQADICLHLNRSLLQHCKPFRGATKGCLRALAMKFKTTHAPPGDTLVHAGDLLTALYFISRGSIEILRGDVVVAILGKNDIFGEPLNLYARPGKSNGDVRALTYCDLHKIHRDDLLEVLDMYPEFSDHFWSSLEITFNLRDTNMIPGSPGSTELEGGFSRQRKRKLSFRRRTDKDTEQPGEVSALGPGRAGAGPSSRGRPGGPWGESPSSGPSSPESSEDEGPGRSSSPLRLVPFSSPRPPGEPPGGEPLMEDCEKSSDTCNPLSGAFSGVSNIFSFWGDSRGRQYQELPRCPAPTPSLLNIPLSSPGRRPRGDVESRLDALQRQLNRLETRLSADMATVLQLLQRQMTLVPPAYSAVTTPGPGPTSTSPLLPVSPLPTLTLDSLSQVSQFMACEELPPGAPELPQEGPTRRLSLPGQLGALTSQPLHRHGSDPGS
T1 sequence (P32745 whole entry): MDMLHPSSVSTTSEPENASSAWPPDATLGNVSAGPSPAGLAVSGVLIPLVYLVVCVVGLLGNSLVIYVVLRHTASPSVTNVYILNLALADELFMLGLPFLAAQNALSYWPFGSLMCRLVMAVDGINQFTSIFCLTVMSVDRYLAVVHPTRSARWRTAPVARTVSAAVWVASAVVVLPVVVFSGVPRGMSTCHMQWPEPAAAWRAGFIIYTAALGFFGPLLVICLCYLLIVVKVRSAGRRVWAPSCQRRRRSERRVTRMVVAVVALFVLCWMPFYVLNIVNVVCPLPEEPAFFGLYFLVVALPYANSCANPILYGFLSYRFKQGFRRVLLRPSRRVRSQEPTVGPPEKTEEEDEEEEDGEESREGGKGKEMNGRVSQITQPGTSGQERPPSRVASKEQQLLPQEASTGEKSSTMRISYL

Row | Structure (SMILES) | IC50 [1] | EC50 [2] | also measured
1 | Fc1ccc(-c2n[nH]c([C@H]3Cc4c([nH]c5ccccc45)[C@@H](C4CCOCC4)N3)n2)cc1 | 282 nM | 201 nM | –
2 | c1ccc2c3c([nH]c2c1)[C@@H](C1CCOCC1)N[C@@H](c1nc(-c2ccncc2)c[nH]1)C3 | 163 nM | 432 nM | –
3 | CC1(c2nc(-c3ccccc3)c[nH]2)Cc2c([nH]c3ccccc23)C(C2CCOCC2)N1 (stereo in doubt; 6c) | > 1330 nM | – | IC50 [3]: 1630 nM
4 | CS(=O)(=O)c1ccc(-c2c[nH]c([C@H]3Cc4c([nH]c5ccccc45)[C@@H](C4CCOCC4)N3)n2)cc1 | > 1330 nM | > 1000 nM | –
5 | COc1ccc(-c2c[nH]c([C@H]3Cc4c([nH]c5ccccc45)[C@@H](C4CCOCC4)N3)n2)cc1 | 127 nM | 181 nM | –
6 | Fc1ccc(-c2cc([C@H]3Cc4c([nH]c5ccccc45)[C@@H](C4CCOCC4)N3)[nH]n2)cc1 | 280 nM | 938 nM | –
7 | Cc1nc([C@]2(c3cnn(C)c3)N[C@@H](c3nc(-c4ccc(F)cc4)c[nH]3)Cc3c2[nH]c2ccccc32)no1 | – | – | Activity [4]: 94%
8 | c1ccc2c3c([nH]c2c1)[C@@H](C1CCOCC1)N[C@@H](c1nc(-c2cnccn2)c[nH]1)C3 | 782 nM | 4500 nM | –
9 | CC1(c2nc(-c3ccccc3)c[nH]2)Cc2c([nH]c3ccccc23)C(C2CCOCC2)N1 (stereo in doubt; 6d) | 102 nM | > 1000 nM | IC50 [3]: 530 nM
10 | FC(F)(F)Oc1ccc(-c2c[nH]c([C@H]3Cc4c([nH]c5ccccc45)[C@@H](C4CCOCC4)N3)n2)cc1 | 639 nM | > 1000 nM | –
11 | c1ccc(-c2nc([C@H]3Cc4c([nH]c5ccccc45)[C@@H](C4CCOCC4)N3)c[nH]2)cc1 | 487 nM | 405 nM | –
12 | O=C(O)c1cccc(-c2c[nH]c([C@H]3Cc4c([nH]c5ccccc45)[C@@H](C4CCOCC4)N3)n2)c1 | > 1330 nM | – | –
13 | Cn1cc(-c2ccc(F)cc2)nc1[C@H]1Cc2c([nH]c3ccccc23)[C@@H](C2CCOCC2)N1 | 225 nM | > 1000 nM | –
14 | c1ccc(-c2c[nH]c([C@H]3Cc4c([nH]c5ccccc45)[C@@H](C4CCOCC4)N3)n2)cc1 | – | 22 nM | AUC/dose [5]: 1.25 µM·h/mg/kg; Activity [6]: 75%
15 | Fc1ccc(-c2c[nH]c([C@H]3Cc4c([nH]c5ccccc45)[C@@H](C4CCOCC4)N3)n2)cc1 | – | 5.7 nM | AUC/dose [5]: 5.58 µM·h/mg/kg; clearance [7]: 5.9 mL/min/kg; half-life [8]: 3.6 h; Vd [9]: 1.8 L/kg; bioavailability [10]: 82%; Activity [6]: 79%
16 | c1ccc(-c2ccc(-c3c[nH]c([C@H]4Cc5c([nH]c6ccccc56)[C@@H](C5CCOCC5)N4)n3)cc2)cc1 | 391 nM | > 1000 nM | –

Row | Structure (SMILES) | IC50 [1] | EC50 [2] | also measured
17 | c1cnc(-c2c[nH]c([C@H]3Cc4c([nH]c5ccccc45)[C@@H](C4CCOCC4)N3)n2)nc1 | > 1330 nM | > 1000 nM | –
18 | c1ccc2c3c([nH]c2c1)[C@@H](C1CCOCC1)N[C@@H](c1nc(-c2cscn2)c[nH]1)C3 | 786 nM | > 1000 nM | –
19 | Clc1ccc(-c2c[nH]c([C@H]3Cc4c([nH]c5ccccc45)[C@@H](C4CCOCC4)N3)n2)nc1 | 74 nM | 199 nM | –
20 | CC(C)(C)c1c[nH]c(C2Cc3c([nH]c4ccccc34)C(C3CCOCC3)N2)n1 (stereo not drawn) | 150 nM | 1010 nM | IC50 [3]: 2940 nM
21 | c1ccc(-c2c[nH]c([C@H]3Cc4c([nH]c5ccccc45)[C@@H](C4CCOCC4)N3)n2)nc1 | 109 nM | 196 nM | –
22 | CC1(c2nc(-c3ccccc3)c[nH]2)Cc2c([nH]c3ccccc23)C(C2CCOCC2)N1 (stereo in doubt; 6b) | 603 nM | – | IC50 [3]: 2950 nM
23 | c1cncc(-c2c[nH]c([C@H]3Cc4c([nH]c5ccccc45)[C@@H](C4CCOCC4)N3)n2)c1 | 193 nM | – | –
24 | Cc1nc([C@]2(c3cnn(C)c3)N[C@@H](c3nc(-c4ccc(F)cn4)c[nH]3)Cc3c2[nH]c2ccccc32)no1 | – | – | Activity [4]: 46%; Activity [11]: 40%; Activity [12]: 57%; Activity [13]: 87%; Activity [14]: 93%; IC50 [15]: 2300 nM; IC50 [16]: > 10000 nM; IC50 [17]: 3200 nM; IC50 [18]: 10000 nM
25 | c1ccc2c3c([nH]c2c1)[C@@H](C1CCOCC1)N[C@@H](c1nc(-c2nccs2)c[nH]1)C3 | > 1330 nM | > 1000 nM | –
26 | FC(F)(F)Oc1cccc(-c2c[nH]c([C@H]3Cc4c([nH]c5ccccc45)[C@@H](C4CCOCC4)N3)n2)c1 | 43 nM | > 1000 nM | IC50 [3]: 58 nM
27 | Cc1[nH]c([C@H]2Cc3c([nH]c4ccccc34)[C@@H](C3CCOCC3)N2)nc1-c1ccccc1 | 573 nM | > 1000 nM | –
28 | c1ccc2c3c([nH]c2c1)C(C1CCOCC1)NC(c1nc(C2CCCCC2)c[nH]1)C3 (stereo not drawn) | 230 nM | 691 nM | –
29 | N#Cc1ccc(-c2c[nH]c([C@H]3Cc4c([nH]c5ccccc45)[C@@H](C4CCOCC4)N3)n2)cc1 | 141 nM | – | –
30 | Cn1cc(-c2ccc(F)cc2)nc1[C@H]1Cc2c([nH]c3ccccc23)[C@H](C2CCOCC2)N1 | 1330 nM | – | –
31 | c1ccc2c(-c3c[nH]c([C@H]4Cc5c([nH]c6ccccc56)[C@@H](C5CCOCC5)N4)n3)c[nH]c2c1 | 133 nM | – | –

The remaining compounds from weak to strong by IC50 [1], led by results:

Row | IC50 [1] | EC50 [2] | Structure (SMILES) | also measured
32 | 39 nM | 67 nM | Fc1ccc(-c2c[nH]c([C@H]3Cc4c([nH]c5ccccc45)[C@@H](C4CCOCC4)N3)n2)nc1 | –
33 | 37 nM | 435 nM | N#Cc1cccc(-c2c[nH]c([C@H]3Cc4c([nH]c5ccccc45)[C@@H](C4CCOCC4)N3)n2)c1 | –
34 | 34 nM | 26 nM | Oc1ccc(-c2c[nH]c([C@H]3Cc4c([nH]c5ccccc45)[C@@H](C4CCOCC4)N3)n2)cc1 | –
35 | 34 nM | 138 nM | Cc1csc(-c2c[nH]c([C@H]3Cc4c([nH]c5ccccc45)[C@@H](C4CCOCC4)N3)n2)c1 | –
36 | 33 nM | 113 nM | Cc1ccc(-c2c[nH]c([C@H]3Cc4c([nH]c5ccccc45)[C@@H](C4CCOCC4)N3)n2)cc1 | –
37 | 26 nM | 150 nM | Cn1c2c(c3ccccc31)C[C@H](c1nc(-c3ccc(F)cc3)c[nH]1)N[C@@H]2C1CCOCC1 | –
38 | 26 nM | 1520 nM | FC(F)(F)c1ccc(-c2c[nH]c([C@H]3Cc4c([nH]c5ccccc45)[C@@H](C4CCOCC4)N3)n2)cc1 | –
39 | 25 nM | > 1000 nM | c1ccc2c3c([nH]c2c1)C(C1CCOCC1)NC(c1nc(C24CC5CC(CC(C5)C2)C4)c[nH]1)C3 (stereo not drawn) | IC50 [3]: 506 nM
40 | 24 nM | 77 nM | Cc1nc([C@@]2(c3cnn(C)c3)N[C@@H](c3nc(-c4ccccn4)c[nH]3)Cc3c2[nH]c2ccccc32)no1 | –
41 | 23 nM | 37 nM | Fc1ccc(-c2c[nH]c([C@H]3Cc4c([nH]c5ccccc45)[C@@H](C4CCOCC4)N3)n2)c(F)c1 | IC50 [3]: 634 nM
42 | 18 nM | 30 nM | Fc1ccccc1-c1c[nH]c([C@H]2Cc3c([nH]c4ccccc34)[C@@H](C3CCOCC3)N2)n1 | –
43 | 17 nM | 206 nM | Clc1ccc(-c2c[nH]c([C@H]3Cc4c([nH]c5ccccc45)[C@@H](C4CCOCC4)N3)n2)s1 | –
44 | 15 nM | 48 nM | c1ccc2c3c([nH]c2c1)[C@@H](C1CCOCC1)N[C@@H](c1nc(-c2ccsc2)c[nH]1)C3 | –
45 | 10 nM | 11 nM | c1ccc2c3c([nH]c2c1)[C@@H](C1CCOCC1)N[C@@H](c1nc(-c2csc4ccccc24)c[nH]1)C3 | –
46 | 9.4 nM | 5.5 nM | Cc1nc([C@]2(c3cnn(C)c3)N[C@@H](c3nc(-c4ccccn4)c[nH]3)Cc3c2[nH]c2ccccc32)no1 | –
47 | 8.2 nM | 88 nM | Fc1cccc(-c2c[nH]c([C@H]3Cc4c([nH]c5ccccc45)[C@@H](C4CCOCC4)N3)n2)c1 | –
48 | 8.1 nM | 50 nM | Clc1ccc(-c2c[nH]c([C@H]3Cc4c([nH]c5ccccc45)[C@@H](C4CCOCC4)N3)n2)cc1 | –
49 | 8 nM | 3.1 nM | COc1cccc(-c2c[nH]c([C@H]3Cc4c([nH]c5ccccc45)[C@@H](C4CCOCC4)N3)n2)n1 | IC50 [3]: 1020 nM
50 | 4.6 nM | 17 nM | COc1cccc(-c2c[nH]c([C@H]3Cc4c([nH]c5ccccc45)[C@@H](C4CCOCC4)N3)n2)c1 | –
51 | 2.9 nM | 17 nM | COc1cccc(-c2c[nH]c([C@H]3Cc4c([nH]c5ccccc45)[C@@](c4cnn(C)c4)(c4noc(C)n4)N3)n2)n1 | –
52 | 2.6 nM | 3.3 nM | Cc1nc([C@@]2(c3cnn(C)c3)N[C@@H](c3nc(-c4ccccc4)c[nH]3)Cc3c2[nH]c2ccccc32)no1 | –
53 | 2.1 nM | 4.8 nM | COc1cccc(-c2c[nH]c([C@H]3Cc4c([nH]c5ccccc45)[C@](c4cnn(C)c4)(c4noc(C)n4)N3)n2)n1 | –
54 | 1.8 nM | 6.4 nM | Fc1ccc(-c2c[nH]c([C@H]3Cc4c([nH]c5ccccc45)[C@@H](C4CCOCC4)N3)n2)cc1F | –
55 | 1.4 nM | 0.46 nM | Cc1nc([C@]2(c3cnn(C)c3)N[C@@H](c3nc(-c4ccccc4)c[nH]3)Cc3c2[nH]c2ccccc32)no1 | –
